Results as given in patent publication US20260224680A1, “COMPOSITIONS FOR INDUCING OR RESCUING GLYCOLYSIS AND METHODS OF USE THEREOF” (Arizona Board of Regents on behalf of Arizona State …, priority 2023, published 2026).

Tests used:
[1] = system: DCs; experiment: Extracellular flux assays on DCs in vitro (ECAR, respiration); type: cell-based, mouse
Method: (§1) Data represented as mean±std error.
Next, the ability of the F16BP MPs to rescue glycolysis in DCs in the presence of glycolytic inhibitor PFK15 was evaluated using extracellular flux assays. DCs were cultured with either PFK15, F16BP MPs, soluble fructose-6-phosphate (F6P—upstream of PFKFB3) or PFK15+F16BP MPs, or individual components of the F16BP MPs for 2 hr, and extracellular acidification rate (ECAR—rate of glycolysis) measurements were obtained. […] This is important since under conditions of inflammation, DCs need to perform enhanced levels of glycolysis to support the inflammatory protein production.

[2] = system: B16F10 tumors; experiment: B16F10 melanoma model, adoptive transfer of Vacc DCs with PFK15; type: in vivo, mouse; details: day 16; vs no treatment control
Method: To test the versatility of the F16BP-PFK15 system, another aggressive B16F10 melanoma model was chosen (FIG. 4A). In this model, DCs were loaded with F16BP MPs intercalated with mRNA isolated from B16F10 cancer cells, and poly(IC) (Vacc DCs) and adoptively transferred in mice containing B16F10 tumors. This cellular therapy's ability to modulate adaptive immune responses, reduced tumor growth, and improve survival were measured.
To test if the metabolic rescue in DCs can be applied to adoptive cell therapy, adoptive transfer of DC-vaccines was tested in mice (FIG. 16). […] Specifically, 0.75×10^6 B16F10 cells were injected in C57BL/6j immunocompetent mice, and PFK15 was injected every alternate day for the duration of the study (FIG. 16). Moreover, ex vivo DCs loaded with F16BP(mRNA+poly(IC)) (Vacc DCs) or DCs loaded with F16BP MPs were adoptively transferred using retro-orbital injections (RO) on days 6 and 19 (FIG. 15).
To test if the Vacc DCs could modulate the immune responses after their administration, on day 16, spleen, lymph nodes, and tumors were isolated from different conditions and stained for the activation profile of DCs, and T cells. […]
Since Vacc DCs are administered systemically, spleen and cervical lymph nodes were also analysed for the changes in innate and adaptive immune responses (FIG. 19 through FIG. 22).

[3] = system: B16F10 cancer cells; experiment: Proliferation assay using MTT, B16F10; type: cell-based, mouse; details: in vitro
[4] = system: DCs; experiment: DC activation by flow cytometry in vitro; type: cell-based, mouse; details: in the presence of poly(IC); PFK15 conc.=25 μM
Source text: as §1
To test if F16BP MPs can modulate the function of DCs, mRNA-based and peptide-based vaccine F16BP MPs were formulated. These vaccines were generated by intercalating di-phosphorylated melanoma peptide antigen Tyrosine related protein 2 (pTRP2), and poly(IC) and mRNA derived from melanoma cells, which contain several phosphate groups in their backbone (FIG. 12). Since pTRP2p, and poly(IC) have phosphate groups, these molecules can be incorporated into the F16BP MPs using the calcium-phosphate chemistry. The amount of pTRp2, and poly(IC) incorporated within the F16BP MPs was determined to be 78±3.4, and 50.9±7.9 μg, respectively. Next, F16BP MPs intercalated with poly(IC) and pTRP2 were incubated with DCs overnight, and flow cytometry was utilized to test if these particles could activate DCs (FIG. 2I and FIG. 2J).

[5] = system: YUMM1.1 cancer cells; experiment: Proliferation assay using MTT, YUMM1.1; type: cell-based, mouse; details: in vitro
[6] = DCs cultured 2 hr, vs no treatment control

`O=C(/C=C/c1ccc2ccccc2n1)c1ccncc1` [PFK15] was tested, and the “glycolysis (ECAR)” value [1, 6] was “lower than no treatment control”, the “glycolytic capacity (ECAR)” value [1, 6] was “lower than no treatment control” and the “glycolysis (ECAR)” value ([1]; in the presence of poly(IC)) was “decreased”. For the same molecule, the “glycolytic capacity (ECAR)” value ([1]; in the presence of poly(IC)) was “decreased”, the “total number of CD8+ T cells in the tumor” value [2] was “significantly decreased” and the “proliferation of B16F10 cancer cells” value [3] was “effective in preventing proliferation”. The “activation of DCs (CD80+CD86+ in CD11c+)” value [4] was “able to decrease” and the “proliferation of YUMM1.1 cancer cells” value [5] was “effective in preventing proliferation”.
